For test [1], the target named is T1, human GPR55 receptor (Homo sapiens, UniProt Q9Y2T6).
T1 construct: human GPR55 receptor modified with human vasopressin V2 receptor tail [GPR55(E)]; fused on or other part: C-terminal tail of the human vasopressin V2 receptor (AVPR2), added to strengthen beta-arrestin recruitment; HA tag; Beta-arrestin 2-GFP is co-expressed as the read-out
Nature of the test: β-arrestin2 translocation assay, GPR55, U2OS cells. The class given is cell-based. The method, then: Test compounds were screened in U2OS cells permanently expressing β-arrestin 2-GFP and human GPR55 receptor modified with human vasopressin V2 receptor tail [GPR55(E)].
β-arrestin2 translocation: For both agonist and antagonist assays, the U2OS cells permanently transfected with β-arrestin 2-GFP and human GPR55(E) were used to trace β-arrestin translocation upon compound treatment. U2OS cells permanently expressing HA-GPR55E and βarr2-GFP were plated into 96 or 384 glass bottomed well plates in clear MEM. For the antagonist assay, compounds in DMSO (final concentration <1%) were added to cells 15 min prior to LPI (agonist) addition and the plates were placed in a 5% 37 degree CO2 incubator (LPI was used at 6 μM). For agonist evaluation only the compound of interest is placed on the wells. Following 40 minute incubation, the cells are fixed by adding paraformaldehyde to 4%. Image acquisition is performed using the Cellomics Arrayscan VTI High Content (HC) cell based imaging system and a ×40 lens. Image analysis is done by using the Batchmode computer software evaluating wavelet information which reflects the number and intensity of fluorescent aggregation (procedures performed at Duke University and adopted from http://www.ncbi.nlm.nih.gov/books/NBK66153/and J. Biol. Chem. 2009; 284(43):29817-27 herein incorporated by reference in its entirety). FIG. 15 describes the biochemical assay for compound 78 wherein the β-arrestin assessment of GPR55 activation is shown.

Test [2] addresses T2, rCB1 (Rattus norvegicus, UniProt P20272).
T2 construct: tissue Pel-Freeze Biologicals; host or cells: rat brain membranes
Description: rCB1 competition-equilibrium binding using [3H]CP-55,940, rat brain membranes. The note with it: Ki calculated from IC50, read-out: rCB1 affinity data. The method, then:
Frozen rat brains (CB1 source) are obtained from Pel-Freeze Biologicals (Rogers, A K) and stored at −80° C. until use. Membranes are prepared according to the method described in Brain Res 1981, 226, (1-2), 107-18 and adapted as previously reported in J Med Chem 1994, 37, (23), 3867-70 and Life Sci 1995, 56, (23-24), 1957-62; each herein incorporated by reference in its entirety.
(§1) The compounds are tested for their ability to bind to CB1 and CB2 receptors using rat brain or HEK293 cell membranes expressing hCB2 and mCB2 membrane preparations, respectively, as described in J Med Chem 1999, 42, (4), 769-776, J Med Chem 1994, 37, (23), 3867-70 and Life Sci 1995, 56, (23-24), 1957-62 (each herein incorporated by reference in its entirety) via competition-equilibrium binding using [^3H]CP-55,940. The results are analyzed using nonlinear regression to determine the actual IC50 of the ligand (Prizm by GraphPad Software, Inc.) and the Ki values are calculated from the IC50 as described in Biochemical Pharmacology 1973, 22, (23), 3099-3108; herein incorporated by reference in its entirety.

In test [3] the target is T3, hCB2 (Homo sapiens, UniProt P34972).
T3 construct: expressed in transfected cells; host or cells: HEK293
Nature of the test: hCB2 competition-equilibrium binding using [3H]CP-55,940, HEK293 cell membranes. The note with it: HEK293 cell membranes expressing hCB2; Ki calculated from IC50; read-out: hCB2 affinity data. How it is done:
HEK293 cells expressing hCB1, hCB2 or mCB2 receptor are used for membrane preparations according to the method described in J Neurochem 1999, 72, (5), 2032-8, herein incorporated by reference in its entirety. The resulting pellet is resuspended in 10 mM Tris-chloride, pH 7.4 with 5 mM MgCl2 and 2 mM EDTA (TME), and stored at −80° C. for no longer than two months. Protein content is assayed by using the Bio-Rad DC protein assay according to the manufacturer's protocol.
as §1

Setting [4] is: antagonist assay, compound added 15 min prior to LPI (6 μM), U2OS cells with β-arrestin 2-GFP and GPR55(E).

T1 sequence (Q9Y2T6 1-292 limits assumed): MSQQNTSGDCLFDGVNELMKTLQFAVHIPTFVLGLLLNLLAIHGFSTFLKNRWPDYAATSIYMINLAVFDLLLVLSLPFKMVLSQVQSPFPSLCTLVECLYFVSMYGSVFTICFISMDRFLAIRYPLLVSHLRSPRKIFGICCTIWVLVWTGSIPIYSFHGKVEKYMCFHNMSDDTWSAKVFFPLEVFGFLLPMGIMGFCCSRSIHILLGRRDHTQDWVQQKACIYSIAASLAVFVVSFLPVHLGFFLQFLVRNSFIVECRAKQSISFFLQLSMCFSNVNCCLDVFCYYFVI
T2 sequence (P20272 whole entry): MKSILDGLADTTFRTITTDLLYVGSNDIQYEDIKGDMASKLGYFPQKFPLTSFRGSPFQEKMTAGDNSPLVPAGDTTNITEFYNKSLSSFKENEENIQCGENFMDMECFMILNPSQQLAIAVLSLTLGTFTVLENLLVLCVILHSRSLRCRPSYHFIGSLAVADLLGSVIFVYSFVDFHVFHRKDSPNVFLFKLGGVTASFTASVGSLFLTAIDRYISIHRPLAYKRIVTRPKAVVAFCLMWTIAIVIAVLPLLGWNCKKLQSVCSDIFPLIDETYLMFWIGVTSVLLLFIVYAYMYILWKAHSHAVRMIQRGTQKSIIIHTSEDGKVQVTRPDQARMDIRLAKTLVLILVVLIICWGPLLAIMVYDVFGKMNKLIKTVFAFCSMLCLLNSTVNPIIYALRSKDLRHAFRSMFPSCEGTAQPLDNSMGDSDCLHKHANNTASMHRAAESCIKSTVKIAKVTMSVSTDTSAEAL
T3 sequence (P34972 whole entry): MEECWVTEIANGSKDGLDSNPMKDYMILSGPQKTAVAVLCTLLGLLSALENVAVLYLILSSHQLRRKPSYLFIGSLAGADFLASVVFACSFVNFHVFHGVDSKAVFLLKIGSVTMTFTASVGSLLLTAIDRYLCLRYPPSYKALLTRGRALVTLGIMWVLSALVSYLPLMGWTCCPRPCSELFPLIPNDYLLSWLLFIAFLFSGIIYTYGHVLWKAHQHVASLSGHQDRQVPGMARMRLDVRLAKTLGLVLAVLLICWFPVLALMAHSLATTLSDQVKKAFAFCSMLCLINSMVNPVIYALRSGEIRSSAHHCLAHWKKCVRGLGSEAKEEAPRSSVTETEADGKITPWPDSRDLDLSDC

Take `C=C(C)[C@@H]1CCC(C)=C[C@H]1c1c(O)cc(O)cc1CCCCC` [abn-cannabidiol, abnormal cannabidiol]: the “GPR55 EC50” value in test [1] (setting [4]) is listed as “none”.
Still for that read-out and setting: the result for `C=C(C)[C@@H]1CCC(C)=C[C@H]1c1c(O)cc(CCCCC)cc1O` [cannabidiol] reads “none”.
For the compound `CC1=CC[C@@H]2[C@@H](C1)c1c(O)cc(C(C)(C)CCCCO[N+](=O)[O-])cc1OC2(C)C` [compound 1, 5-((6aR,1aR)-1-hydroxy-6,6,9-trimethyl-6a,7,10,10a-tetrahydro-6H-benzo[c]chromen-3-yl)-5-methylhexyl nitrate], the Ki in test [2] was 0.1 nM; in test [3], 1 nM.
The EC50 is the concentration at which the effect is half-maximal. In test [1] (setting [4]), `C=C(C)[C@@H]1CCC(C)=C[C@H]1c1c(O)cc(C(C)(C)CCCCO[N+](=O)[O-])cc1O` [compound 78, 5-((1′R,2′R)-2,6-dihydroxy-5′-methyl-2′-(prop-1-en-2-yl)-1′,2′,3′,4′-tetrahydro-[1,1′-biphenyl]-4-yl)-5-methylhexyl nitrate] displayed an EC50 of 2000 to 4000 nM. The Ki is 60 nM in test [2] and 35 nM in test [3].
In the case of `CCCCCc1cc(O)c2c(c1)OC(C)(C)[C@@H]1CCC(C)=C[C@@H]21` [Δ^9-THC, Δ^9-tetrahydrocannabinol], the “GPR55 EC50” value in test [1] (setting [4]) is “none”.
L-α-lysophosphatidylinositol [LPI] registered an EC50 in test [1] (LPI (agonist) line of the antagonist assay table) of 6000 nM.
